# Measurements reported in patent US20130121994A1, “TRIAZOLOPYRIDINE DERIVATIVES” (BAYER INTELLECTUAL PROPERTY GMBH, priority 2009, published 2013).
# Biological target: T1, human kinase Mps-1 (Homo sapiens, UniProt P33981)
# T1 construct: N-terminally GST-tagged human full length recombinant Mps-1 kinase; GST (N); purchased Invitrogen, Karslruhe, Germany PV4071
# T1 sequence (P33981 1-857): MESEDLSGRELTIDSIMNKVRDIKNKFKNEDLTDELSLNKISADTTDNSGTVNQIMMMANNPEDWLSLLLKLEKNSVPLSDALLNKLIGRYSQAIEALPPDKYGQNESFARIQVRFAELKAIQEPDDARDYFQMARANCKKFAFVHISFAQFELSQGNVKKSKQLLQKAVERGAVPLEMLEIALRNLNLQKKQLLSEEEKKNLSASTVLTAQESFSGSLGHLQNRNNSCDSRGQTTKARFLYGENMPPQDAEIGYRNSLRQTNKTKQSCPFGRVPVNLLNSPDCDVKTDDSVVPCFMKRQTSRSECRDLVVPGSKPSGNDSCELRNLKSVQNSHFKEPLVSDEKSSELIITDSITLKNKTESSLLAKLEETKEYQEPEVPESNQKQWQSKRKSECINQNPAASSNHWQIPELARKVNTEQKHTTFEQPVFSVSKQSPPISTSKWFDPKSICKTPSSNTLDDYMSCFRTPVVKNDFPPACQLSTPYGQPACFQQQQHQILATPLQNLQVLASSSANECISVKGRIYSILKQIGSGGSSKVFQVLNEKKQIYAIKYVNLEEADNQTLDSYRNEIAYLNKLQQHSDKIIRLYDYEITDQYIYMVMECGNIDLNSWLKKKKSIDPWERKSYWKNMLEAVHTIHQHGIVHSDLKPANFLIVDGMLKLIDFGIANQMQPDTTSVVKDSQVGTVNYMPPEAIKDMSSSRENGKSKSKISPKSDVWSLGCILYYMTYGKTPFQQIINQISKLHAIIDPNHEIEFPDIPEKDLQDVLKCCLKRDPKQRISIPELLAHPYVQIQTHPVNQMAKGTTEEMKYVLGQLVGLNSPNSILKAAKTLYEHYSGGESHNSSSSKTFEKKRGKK
# Assay: Mps-1 kinase assay (HTRF)
# Type: biochemical
# Procedure: The human kinase Mps-1 phosphorylates a biotinylated substrate peptide. Detection of the phosphorylated product is achieved by homogenous time-resolved fluorescence resonance energy transfer (HTRF) from Europium-labelled anti-phospho-Serine/Threonine antibody as donor to streptavidin labelled with cross-linked allophycocyanin (SA-XLent) as acceptor. Compounds are tested for their inhibition of the kinase activity.
# N-terminally GST-tagged human full length recombinant Mps-1 kinase (purchased from Invitrogen, Karslruhe, Germany, cat. no PV4071) was used. As substrate for the kinase reaction a biotinylated peptide of the amino-acid sequence […] (C-terminus in amide form, purchased from Biosynthan GmbH, Berlin) was used.
# The concentration of Mps-1 in the assay was adjusted to the activity of the enzyme lot and was chosen appropriate to have the assay in the linear range, typical enzyme concentrations were in the range of about 1 nM (final conc. in the 5 μl assay volume).
# The resulting mixture was incubated 1 h at 22° C. to allow the binding of the phosphorylated peptide to the anti-phospho(Ser/Thr)-Europium-antibody. Subsequently the amount of phosphorylated substrate was evaluated by measurement of the resonance energy transfer from the Europium-labelled anti-phospho(Ser/Thr) antibody to the Streptavidin-XLent.
row,IC50,Structure (SMILES)
1,≤ 1 nM,"O=C(NCC(F)(F)F)c1ccc(-c2ccc3nc(Nc4cccnc4OCC(F)(F)F)nn3c2)cc1 [Example 11.001, 4-(2-{[2-(2,2,2-trifluoroethoxy)pyridin-3-yl]amino}[1,2,4]triazolo[1,5-a]-pyridin-6-yl)-N-(2,2,2-trifluoroethyl)benzamide]"
2,≤ 1 nM,"CC(C)(C)NC(=O)c1ccc(Nc2nc3ccc(-c4ccc(C(=O)NCC(F)(F)F)cc4)cn3n2)c(OCC(F)(F)F)c1 [Example 11.002, N-tert-butyl-3-(2,2,2-trifluoroethoxy)-4-[(6-{4-[(2,2,2-trifluoroethyl)-carbamoyl]phenyl}[1,2,4]triazolo[1,5-a]pyridin-2-yl)amino]benzamide]"
3,3.74 nM,"CCOc1ncccc1Nc1nc2ccc(-c3ccc(C(=O)NCC(F)(F)F)cc3)cn2n1 [Example 11.003, 4-{2-[(2-ethoxypyridin-3-yl)amino][1,2,4]triazolo[1,5-a]pyridin-6-yl}-N-(2,2,2-trifluoroethyl)benzamide]"
4,1.01 nM,"COc1cc(C(=O)NC(C)(C)C)ccc1Nc1nc2ccc(-c3ccc(C(=O)NCC(F)(F)F)cc3)cn2n1 [Example 11.005, N-tert-butyl-3-methoxy-4-[(6-{4-[(2,2,2-trifluoroethyl)carbamoyl]phenyl}[1,2,4]triazolo[1,5-a]pyridin-2-yl)amino]benzamide]"
5,≤ 1 nM,"CCNC(=O)c1ccc(Nc2nc3ccc(-c4ccc(C(=O)NCC(F)(F)F)cc4)cn3n2)c(OC)c1 [Example 11.006, N-ethyl-3-methoxy-4-[(6-{4-[(2,2,2-trifluoroethyl)carbamoyl]phenyl}[1,2,4]triazolo[1,5-a]pyridin-2-yl)amino]benzamide]"
6,≤ 1 nM,"CNCCN(C)C(=O)c1ccc(Nc2nc3ccc(-c4ccc(C(=O)NCC(F)(F)F)cc4)cn3n2)c(OC)c1 [Example 11.007, 3-methoxy-N-methyl-N-[2-(methylamino)ethyl]-4-[(6-{4-[(2,2,2-trifluoroethyl)carbamoyl]phenyl}[1,2,4]triazolo[1,5-a]pyridin-2-yl)amino]benzamide]"
7,1550 nM,"N#Cc1ccccc1Nc1nc2ccc(-c3ccc(C(=O)O)cc3)cn2n1 [Example 11.009, 4-{2-[(2-cyanophenyl)amino][1,2,4]triazolo[1,5-a]pyridin-6-yl}benzoic acid]"
8,1.61 nM,"N#Cc1ccccc1Nc1nc2ccc(-c3ccc(C(=O)NCC(F)(F)F)cc3)cn2n1 [Example 11.010, 4-{2-[(2-cyanophenyl)amino][1,2,4]triazolo[1,5-a]pyridin-6-yl}-N-(2,2,2-trifluoroethyl)benzamide]"
9,8.28 nM,"CC(C)(C)CNC(=O)c1ccc(-c2ccc3nc(Nc4ccccc4C#N)nn3c2)cc1 [Example 11.012, 4-{2-[(2-cyanophenyl)amino][1,2,4]triazolo[1,5-a]pyridin-6-yl}-N-(2,2-dimethylpropyl)benzamide]"
10,1060 nM,"CC(C)(C)OC(=O)c1ccc(-c2ccc3nc(Nc4ccccc4C#N)nn3c2)cc1 [Example 11.013, tert-butyl 4-{2-[(2-cyanophenyl)amino][1,2,4]triazolo[1,5-a]pyridin-6-yl}benzoate]"
11,42.5 nM,"CC(C)(C)NC(=O)c1ccc(-c2ccc3nc(Nc4ccccc4C#N)nn3c2)cc1 [Example 11.014, N-tert-butyl-4-{2-[(2-cyanophenyl)amino][1,2,4]triazolo[1,5-a]pyridin-6-yl}benzamide]"
12,1.64 nM,"CCOCCNC(=O)c1ccc(Nc2nc3ccc(-c4ccc(C(=O)NCC(F)(F)F)cc4)cn3n2)c(OC)c1 [Example 11.015, N-(2-ethoxyethyl)-3-methoxy-4-[(6-{4-[(2,2,2-trifluoroethyl)carbamoyl]phenyl}[1,2,4]triazolo [1,5-a]pyridin-2-yl)amino]benzamide]"
13,1.29 nM,"COc1cc(C(=O)NCC(C)(C)O)ccc1Nc1nc2ccc(-c3ccc(C(=O)NCC(F)(F)F)cc3)cn2n1 [Example 11.016, N-(2-hydroxy-2-methylpropyl)-3-methoxy-4-[(6-{4-[(2,2,2-trifluoroethyl)carbamoyl]phenyl}[1,2,4]triazolo [1,5-a]pyridin-2-yl)amino]benzamide]"
14,1.73 nM,"COc1cc(C(=O)NC(C)(C)CO)ccc1Nc1nc2ccc(-c3ccc(C(=O)NCC(F)(F)F)cc3)cn2n1 [Example 11.017, N-(1-hydroxy-2-methylpropan-2-yl)-3-methoxy-4-[(6-{4-[(2,2,2-trifluoroethyl)carbamoyl]phenyl}[1,2,4]triazolo [1,5-a]pyridin-2-yl)amino]benzamide]"
15,1.03 nM,"COc1cc(C(=O)NC(C)(C)CO)ccc1Nc1nc2ccc(-c3ccc(C(=O)NCC(F)(F)F)c(F)c3)cn2n1 [Example 11.018, 2-fluoro-4-[2-({4-[(1-hydroxy-2-methylpropan-2-yl)carbamoyl]-2-methoxyphenyl}amino)[1,2,4]triazolo[1,5-a]pyridin-6-yl]-N-(2,2,2-trifluoroethyl)benzamide]"
16,1.78 nM,"COc1cc(C(=O)NCCO)ccc1Nc1nc2ccc(-c3ccc(C(=O)NCC(F)(F)F)cc3)cn2n1 [Example 11.019, N-(2-hydroxyethyl)-3-methoxy-4-[(6-{4-[(2,2,2-trifluoroethyl)carbamoyl]phenyl}[1,2,4]triazolo [1,5-a]pyridin-2-yl)amino]benzamide]"
17,3.05 nM,"COc1cc(C(=O)N(C)CCN(C)C(C)=O)ccc1Nc1nc2ccc(-c3ccc(C(=O)NCC(F)(F)F)cc3)cn2n1 [Example 11.020, N-{2-[acetyl(methyl)amino]ethyl}-3-methoxy-N-methyl-4-[(6-{4-[(2,2,2-trifluoroethyl)carbamoyl]phenyl}[1,2,4]triazolo [1,5-a]pyridin-2-yl)amino]benzamide]"
18,3.5 nM,"COc1cc(C(=O)N(C)CCN(C)C(=O)OC(C)(C)C)ccc1Nc1nc2ccc(-c3ccc(C(=O)NCC(F)(F)F)cc3)cn2n1 [Example 11.021, tert-butyl {2-[{3-methoxy-4-[(6-{4-[(2,2,2-trifluoroethyl)carbamoyl]phenyl}[1,2,4]triazolo [1,5-a]pyridin-2-yl)amino]benzoyl}(methyl)amino]ethyl}methyl-carbamate]"
19,4.36 nM,"COc1cc(C(=O)NC(C)(C)CO)ccc1Nc1nc2ccc(-c3ccc(C(=O)NCC(C)C)cc3)cn2n1 [Example 11.022, N-(1-hydroxy-2-methylpropan-2-yl)-3-methoxy-4-[(6-{4-[(2-methylpropyl)carbamoyl]phenyl}[1,2,4]triazolo [1,5-a]pyridin-2-yl)amino]benzamide]"
20,5.22 nM,"COc1cc(C(=O)NC(C)(C)CO)ccc1Nc1nc2ccc(-c3ccc(C(=O)NCCC(F)(F)F)cc3)cn2n1 [Example 11.023, N-(1-hydroxy-2-methylpropan-2-yl)-3-methoxy-4-[(6-{4-[(3,3,3-trifluoropropyl)carbamoyl]phenyl}[1,2,4]tria-zolo[1,5-a]pyridin-2-yl)amino]benzamide]"
21,3.84 nM,"COc1cc(C(=O)NC(C)(C)CO)ccc1Nc1nc2ccc(-c3ccc(C(=O)NCC(F)(F)F)c(C)c3)cn2n1 [Example 11.024, 4-[2-({4-[(1-hydroxy-2-methylpropan-2-yl)carbamoyl]-2-methoxyphenyl}amino)[1,2,4]triazolo[1,5-a]pyridin-6-yl]-2-methyl-N-(2,2,2-trifluoroethyl)benzamide]"
